Measured values reported in ChEMBL document CHEMBL5252653, “Design, Synthesis, and Bioevaluation of Dexmedetomidine Prodrug” (ACS Med Chem Lett, 2023).

What was measured:
Rattus norvegicus [1] = experiment: Sedative activity in Sprague-Dawley rat assessed as duration time at 2 times of EC50 administered as bolus dose; assay type: functional
Rattus norvegicus [2] = organism: Rattus norvegicus; experiment: Sedative activity in Sprague-Dawley rat assessed as onset time at 2 times of EC50; assay type: functional; conditions: dose 10-110 µg/ml; route iv
[3] = Prodrug conversion in Sprague-Dawley rat assessed as dexmedetomidine release at 2 times of ED50; assay type: ADME; conditions: in vivo
[4] = Toxicity in Sprague-Dawley rat assessed as survival rate at 2 times of EC50; conditions: in vivo, read-out: Activity
Rattus norvegicus [5] = experiment: Sedative activity in Sprague-Dawley rat at 10 to 110 microg/ml, iv administered as bolus dose by dixon analysis; assay type: functional
[6] = Cardiotoxicity in Sprague-Dawley rat assessed as reduction in heart rate at 20 to 80 microg/ml, iv administered as bolus dose by ECG analysis; assay type: toxicity, organism-based; conditions: in vivo, dose 20-80 µg/ml
[7] = Prodrug conversion in Sprague-Dawley rat plasma assessed as dexmedetomidine release measured at 30 mins by HPLC analysis; assay type: ADME, cell-free; conditions: 0.5 h
[8] = Cardiotoxicity in Sprague-Dawley rat assessed as decrease in blood pressure at 20 to 80 microg/ml, iv administered as bolus dose measured for 45 mins by ECG analysis; assay type: toxicity, organism-based; design: scale not given: the % may be the effect or the level left; conditions: in vivo, 0.75 h, at 20 to 80 µg/mL, dose 20-80 µg/ml
[9] = Prodrug conversion in Sprague-Dawley rat plasma assessed as dexmedetomidine release measured at 5 mins by HPLC analysis; assay type: ADME, cell-free
[10] = Cardiotoxicity in Sprague-Dawley rat assessed as change in heart rate at 20 to 80 microg/ml, iv administered as bolus dose by ECG analysis; assay type: toxicity, organism-based; conditions: in vivo, at 20 to 80 µg/mL, dose 20-80 µg/ml
[11] = Cardiotoxicity in Sprague-Dawley rat assessed as decrease in blood pressure at 20 to 80 microg/ml, iv administered as bolus dose by ECG analysis; assay type: toxicity, organism-based; design: scale not given: the % may be the effect or the level left; conditions: in vivo, at 20 to 80 µg/mL, dose 20-80 µg/ml
[12] = Cardiotoxicity in Sprague-Dawley rat assessed as bradycardia at 20 to 80 microg/ml, iv administered as bolus dose by ECG analysis; assay type: toxicity, organism-based; conditions: in vivo, at 20 to 80 µg/mL, dose 20-80 µg/ml
[13] = Prodrug conversion in Sprague-Dawley rat plasma assessed as dexmedetomidine release measured at 2 mins by HPLC analysis; assay type: ADME, cell-free
[14] = Prodrug conversion in Sprague-Dawley rat plasma assessed as dexmedetomidine release measured at 15 mins by HPLC analysis; assay type: ADME, cell-free; conditions: 0.25 h

Structure (SMILES) | Time (Rattus norvegicus [1]) | Time (Rattus norvegicus [2]) | Drug metabolism [3] | survival [4] | ED50 (Rattus norvegicus [5]) | Activity [6] | Drug metabolism [7] | Activity [8] | Drug metabolism [9] | Activity [10] | Activity [11] | Activity [12] | Drug metabolism [13] | Drug metabolism [14]
Cc1cccc([C@H](C)c2cn(COC(=O)C3CC3)cn2)c1C.Cl | 2410 s | 195.2 s | 35.67 µg/kg | 100% | 0.0298 mg/kg | – | – | – | – | – | – | – | – | –
Cc1cccc([C@H](C)c2cn(COC(=O)c3ccccc3)cn2)c1C.Cl | 4457.7 s | 204.1 s | 64.29 µg/kg | 100% | 0.0595 mg/kg | Toxic | Metabolite_Detected | – | – | – | – | – | – | –
CCC(=O)OC(C)n1cnc([C@@H](C)c2cccc(C)c2C)c1.Cl (stereo partly specified) | 2295.6 s | 159.8 s | 41.58 µg/kg | 100% | 0.035 mg/kg | Toxic | Metabolite_Detected | 32.17% | – | – | – | – | – | –
Cc1cccc([C@H](C)c2cn(COC(=O)C(C)C)cn2)c1C.Cl | 3798.6 s | 63.9 s | 47.44 µg/kg | 100% | 0.0399 mg/kg | – | – | – | Metabolite_Detected | – | – | – | – | –
Cc1cccc([C@H](C)c2cn(COC(=O)OC(C)C)cn2)c1C.Cl | 2458.7 s | 305.2 s | 35.33 µg/kg | 100% | 0.0311 mg/kg | – | – | – | – | – | – | – | – | –
Cc1cccc([C@H](C)c2cn(COC(=O)C(C)(C)C)cn2)c1C.Cl | 3091.8 s | 157.9 s | 62.94 µg/kg | 100% | 0.0551 mg/kg | Toxic | – | – | – | -27.08% | 14.57% | – | – | –
CCCC(=O)OCn1cnc([C@@H](C)c2cccc(C)c2C)c1.Cl | 1941.9 s | 265 s | 25.15 µg/kg | 100% | 0.0211 mg/kg | Toxic | – | – | Metabolite_Detected | -29.92% | 20.07% | – | – | –
CCOC(=O)OCn1cnc([C@@H](C)c2cccc(C)c2C)c1.Cl | 2887.7 s | 122.5 s | 34.47 µg/kg | 100% | 0.0292 mg/kg | Toxic | – | – | – | – | – | -24.88% | – | –
Cc1cccc([C@H](C)c2cn(COC(=O)OC3CCC3)cn2)c1C.Cl | 3189.5 s | 185 s | 29.48 µg/kg | 100% | 0.0268 mg/kg | Toxic | – | – | Metabolite_Detected | – | 34.79% | – | Metabolite_Detected | –
Cc1cccc([C@H](C)c2cncn2COP(=O)([O-])[O-])c1C.[Na+].[Na+] | 3966.6 s | 206.5 s | 45.5 µg/kg | 100% | 0.0402 mg/kg | – | – | – | – | – | 15.15% | – | – | –
Cc1cccc([C@H](C)c2cn(C(=O)OCC(C)C)cn2)c1C.Cl | 2802.9 s | 151.9 s | 42.7 µg/kg | 100% | 0.0359 mg/kg | Toxic | – | – | – | – | 34.65% | – | – | –
Cc1cccc([C@H](C)c2cnc[nH]2)c1C [DEXMEDETOMIDINE] | 3312 s | 87.8 s | 28.38 µg/kg | 100% | 0.0168 mg/kg | – | – | – | – | -33.58% | 43.55% | -41.07% | – | –
CC(=O)OCn1cnc([C@@H](C)c2cccc(C)c2C)c1.Cl | 2483.6 s | 252.4 s | 41.68 µg/kg | 100% | 0.0321 mg/kg | – | – | 29.66% | – | – | – | – | – | –
CC(=O)OC(C)n1cnc([C@@H](C)c2cccc(C)c2C)c1.Cl (stereo partly specified) | 2274.1 s | 117 s | 32.61 µg/kg | 100% | 0.0263 mg/kg | – | Metabolite_Detected | – | – | – | 14.67% | – | – | –
Cc1cccc([C@H](C)c2cn(COC(=O)OC3CC3)cn2)c1C.Cl | 2795.7 s | 92.1 s | 26.53 µg/kg | 100% | 0.0232 mg/kg | – | – | – | Metabolite_Detected | – | 37.25% | – | Metabolite_Detected | –
COC(=O)n1cnc([C@@H](C)c2cccc(C)c2C)c1.Cl | 2018.2 s | 219.5 s | 25.77 µg/kg | 100% | 0.02 mg/kg | – | – | – | – | – | 17.35% | – | – | Metabolite_Detected
Cc1cccc([C@H](C)c2cn(COC(=O)C3CCC3)cn2)c1C.Cl | 2841.2 s | 214.4 s | 39.02 µg/kg | 100% | 0.034 mg/kg | – | – | – | – | – | – | – | – | –
Cc1cccc([C@H](C)c2cn(C(=O)OC(C)C)cn2)c1C.Cl | 3984.1 s | 239.3 s | 55.39 µg/kg | 100% | 0.0446 mg/kg | Toxic | – | – | – | -22.88% | 22.4% | -22.88% | – | Metabolite_Detected
CCCOC(=O)n1cnc([C@@H](C)c2cccc(C)c2C)c1 | 2605.7 s | 142.1 s | 31.7 µg/kg | 100% | 0.0255 mg/kg | – | – | – | – | – | 28.23% | – | – | –
CCOC(=O)n1cnc([C@@H](C)c2cccc(C)c2C)c1.Cl | 1971.4 s | 289.1 s | 27.61 µg/kg | 100% | 0.0213 mg/kg | – | – | – | – | – | – | – | – | –
COC(=O)COC(=O)OCn1cnc([C@@H](C)c2cccc(C)c2C)c1.Cl | 3795.2 s | 94.9 s | 50.93 µg/kg | 100% | 0.0487 mg/kg | Toxic | – | 31.3% | – | – | – | – | – | –
CCOC(=O)COC(=O)OCn1cnc([C@@H](C)c2cccc(C)c2C)c1.Cl | 3177.7 s | 68.2 s | 47.22 µg/kg | 100% | 0.0468 mg/kg | Toxic | – | 28.49% | – | – | – | – | – | –
COC(=O)OCn1cnc([C@@H](C)c2cccc(C)c2C)c1.Cl | 2017.2 s | 259.6 s | 28.68 µg/kg | 100% | 0.0232 mg/kg | – | – | – | – | – | 16.35% | – | – | –
CCC(=O)OCn1cnc([C@@H](C)c2cccc(C)c2C)c1.Cl | 2325.8 s | 184.4 s | 33.32 µg/kg | 100% | 0.0268 mg/kg | – | – | – | Metabolite_Detected | – | 34.92% | – | – | –
